System: SK-MEL-2 multi-cell spheroids, viability
Experiment: Anticancer human tumor SK-MEL-2 cell line growth inhibition [TAK];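 also: spheroids exposed to drugs for seven days before readout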;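 as to viability, T/C: percent of DMSO vehicle control luminescence so 100% = untreated viability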
Conditions: for IC50: curve of first compound; for viability, T/C: stronger effect = lower value
Excerpt: Combinatorial screen of targeted agents with TAK-243 and ipatasertib in multi-cell type tumor spheroids
A high-throughput screen of multi-cell type tumor spheroids was designed to identify active combinations of targeted small molecules and TAK-243 or ipatasertib. Complex spheroids include a stromal component modeled by human endothelial cells (HUVEC) and fibroblasts modeled by human mesenchymal stem cells (MSCs). The concentration ranges selected for each drug and investigational agent were based upon clinically achievable concentrations if the clinical Cmax of the agent was known.
Compounds. The drugs and investigational agents: TAK-243 (785004), ipatasertib (767898), everolimus (733504), selumetinib (741078), bortezomib (756655), trametinib (758246), ixazomib (758254), vemurafenib (761431), dabrafenib (764134), sapanisertib (764658), alpelisib (765974), and copanlisib (816437), were obtained from the National Cancer Institute (NCI) Developmental Therapeutics Program Chemical Repository. The FDA-approved anticancer drug set is available from the NCI Developmental Therapeutics Program. […] The stock solutions were prepared in dimethyl sulfoxide (DMSO, Sigma-Aldrich, St. Louis, MO, cat. D2650) at 800-fold the tested concentration and stored at -70 degrees C prior to their use. All drugs and investigational agents were tested over a range starting from a high concentration at or near the clinical Cmax and decreasing in half-log increments. If the clinical Cmax for an agent had not been determined, the highest concentration tested was 10 microM.
NCI60 Cell Culture. NCI60 cell lines were obtained from the NCI Developmental Therapeutics Program Tumor Repository. For each lot of cells, the Repository performed Applied Biosystems AmpFLSTR Identifiler testing with PCR amplification to confirm consistency with the published Identifier STR profile for each cell line. Cells were kept in continuous culture for no more than 20 passages. The optimal seeding densities for each of the cell lines at each time point assessed were determined prior to performing the concentration response studies. Briefly, the NCI60 human tumor lines were grown as monolayers in RPMI 1640 medium supplemented with 10% FBS and 2 mmol/L L-glutamine.
An additional 2 lines were from the NCI60 cell line panel including melanomas, MALME-3M and SK-MEL-2. Pooled donor human umbilical vein endothelial cells (HUVEC, Lonza, cat. CC-2519) and human mesenchymal stem cells (hMSC, Lonza, cat. PT-2501) were purchased from Lonza (Walkersville, MD).
PDMR cell lines were grown in complete medium (DC medium): Dulbecco's modified Eagle's medium (DMEM)/F12 supplemented with 5% fetal bovine serum (FBS), 2 mM L-glutamine, 100 U/mL penicillin and 100 µg/ml streptomycin, 0.4 µg/ml hydrocortisone, 10 ng/ml epidermal growth factor (EGF) recombinant human protein, 24 µg/mL adenine, and 0.1 mg/mL primocin. During culture from frozen stock vials, PDMR cells were cultured in the same medium containing 10 µM Y-27632 (see Table 3). The PDCs were cultured in complete DMEM/F12 media without 10 microM Y-27632 dihydrochloride for at least two passages prior to the screen. The pooled donor HUVEC and hMSC were cultured in endothelial cell growth medium 2 (PromoCell, Heidelberg, Germany, cat. C-22011) and mesenchymal stem cell growth medium 2 (PromoCell, cat. C-28009), respectively. For all experiments, HUVEC and hMSC were used at passages </=5.
For the pre-screen, cell seeding densities were determined from a titration spanning the range from 5,000 to 313 cells per well. The mct-spheroids including 60% malignant cells, 25% HUVEC and 15% MSC dispensed as a mixture into U-bottom Ultra-Low Attachment 384-well plates (Corning, NY)
High-throughput Drug Combination Screening.
Prior to their inoculation into 384-well plates, malignant cells, HUVEC, and hMSC were removed from T flasks using TrypLE express (Thermo Fisher Scientific, cat. 12605036) and harvested by centrifugation for 5 min at 233 x g. […]

CC(=O)Nc1cccc(-n2c(=O)n(C3CC3)c(=O)c3c(Nc4ccc(I)cc4F)n(C)c(=O)c(C)c32)c1 + CC(C)NCC(C(=O)N1CCN(c2ncnc3c2C(C)CC3O)CC1)c1ccc(Cl)cc1
IC50 (second compound 0.3 µM): 0.203 nM
IC50 (second compound 0.949 µM): 0.15 nM
IC50 (second compound 3 µM): < 0.0949 nM
IC50 (second compound 9.49 µM): < 0.0949 nM
IC50 (second compound 30 µM): < 0.0949 nM
viability, T/C (second compound 0.3 µM, first compound 94.9 pM): 78.9%
viability, T/C (second compound 0.3 µM, first compound 0.0003 µM): 35.2%
viability, T/C (second compound 0.3 µM, first compound 0.000949 µM): 10.4%
viability, T/C (second compound 0.3 µM, first compound 0.003 µM): 5.62%
viability, T/C (second compound 0.3 µM, first compound 0.00949 µM): 2.19%
viability, T/C (second compound 0.3 µM, first compound 0.03 µM): 1.65%
viability, T/C (second compound 0.949 µM, first compound 94.9 pM): 63.2%
viability, T/C (second compound 0.949 µM, first compound 0.0003 µM): 29.8%
viability, T/C (second compound 0.949 µM, first compound 0.000949 µM): 10.2%
viability, T/C (second compound 0.949 µM, first compound 0.003 µM): 3.49%
viability, T/C (second compound 0.949 µM, first compound 0.00949 µM): 1.83%
viability, T/C (second compound 0.949 µM, first compound 0.03 µM): 1.53%
viability, T/C (second compound 3 µM, first compound 94.9 pM): 47%
viability, T/C (second compound 3 µM, first compound 0.0003 µM): 21%
viability, T/C (second compound 3 µM, first compound 0.000949 µM): 3.96%
viability, T/C (second compound 3 µM, first compound 0.003 µM): 2.14%
viability, T/C (second compound 3 µM, first compound 0.00949 µM): 1.28%
viability, T/C (second compound 3 µM, first compound 0.03 µM): 0.92%
viability, T/C (second compound 9.49 µM, first compound 94.9 pM): 39%
viability, T/C (second compound 9.49 µM, first compound 0.0003 µM): 19.2%
viability, T/C (second compound 9.49 µM, first compound 0.000949 µM): 5.57%
viability, T/C (second compound 9.49 µM, first compound 0.003 µM): 1.46%
viability, T/C (second compound 9.49 µM, first compound 0.00949 µM): 1.58%
viability, T/C (second compound 9.49 µM, first compound 0.03 µM): 0.65%
viability, T/C (second compound 30 µM, first compound 94.9 pM): 39.5%
viability, T/C (second compound 30 µM, first compound 0.0003 µM): 17.5%
viability, T/C (second compound 30 µM, first compound 0.000949 µM): 3.27%
viability, T/C (second compound 30 µM, first compound 0.003 µM): 1.19%
viability, T/C (second compound 30 µM, first compound 0.00949 µM): 0.56%
viability, T/C (second compound 30 µM, first compound 0.03 µM): 1.06%
